Source: paper PMC9117324 (Scientific Reports, 2022)
Several values for one entry are separate records, joined by “and”; a condition that tells them apart may be missing. Identical values can stand only once. Values belong to the compound of their own block, whether it stands above or below them.

Assays:
[1] = test system: Caco-2 human colon cancer cells; test: MTT cell viability assay, Caco-2; type: cell-based; details: for IC50: MTT
Experimental: (§1) All cancer cells were cultured in RPMI 1640 medium with 10% FBS in a humidified incubator of 95% air and 5% CO2 at 37 °C. […] Then, […] of MTT solution (5 mg/ml) was added to every well and kept at 37 °C for 4 h in the dark. After removing the medium, 200 µl DMSO was added, and the solution was kept on a shaker for approximately 15 min until the formazan solved completely. The absorbance was evaluated at 490 nm with an ELISA reader. The IC50 was computed by GraphPad Prism 7.0 software. […] All of cell lines were treated for three different duration times (24, 48 and 72 h). […] Cell viability was assessed with MTT and is presented relative to untreated cells (set to 100%).

Caco-2 cells [2] = test: Cell cycle distribution by PI flow cytometry, Caco-2; type: cell-based, Human; details: Caco-2, IC50 concentration, 48 h
Experimental: (§2) Evaluation of cell cycle progression was performed by flow cytometry of propidium iodide and can identify the fraction of time spent by cells in various stages of the cell cycle. […] Cell cycle distribution was determined by flow cytometry by the protocol described previously. The control condition consisted of cells cultured in the absence of treatment but in the presence of PI. After harvesting the cells with trypsin, they were rinsed and fixed with 70% ethanol and kept for 3 days at 4 °C. Then, the samples were centrifuged, and after removal of supernatants […], the cells were dispersed in 300 µL of PBS. Next, after adding 10 µL of ribonuclease-A (10 mg/mL) and 45 min of incubation, 10 µL propidium iodide (1 mg/mL) was added to each of the samples and vortexed. After 10 min of incubation at room temperature and in the dark, the cells were examined by a FACSCalibur flow cytometer to estimate the cell cycle phases. FlowJo 7.6 software was used to analyze the cell cycle.

Caco-2 cells [3] = test: Annexin V-FITC/PI apoptosis flow cytometry, Caco-2; type: cell-based, Human; details: Caco-2, IC50 concentration, 48 h
Experimental: (§3) After washing the cells with cold PBS, they were resuspended in 100 µl binding buffer containing Annexin V-FITC (5 μL) and PI (5 μL) solution. After incubation for 15 min at room temperature, cells were washed and suspended in 100 μL of 1 × binding buffer. Cells were investigated by a FACSCanto II ([…]) flow cytometry system. The percentage of apoptotic cells was calculated by summation of the cells in (annexin V+ , PI−) and (annexin V+ , PI+) and the percentage of necrotic cells achieved from (annexin V−, PI+). An Annexin-V/PI assay was performed via flow cytometry to measure the percentage of cells with early and late apoptotic changes.

A549 cells [4] = test: Cell cycle distribution by PI flow cytometry, A549; type: cell-based, Human; details: A549, IC50 concentration, 48 h
Experimental: as §2

Caco-2 cells [5] = test: Western blot of apoptotic proteins; type: cell-based, Human; details: Caco-2, IC50 value, 48 h
Experimental: Assessment of apoptotic protein level alterations by western blot analysis by the protocol described previously. The control included cells without treatment. To provide the cell lysate, cells were collected and treated with the following materials: RIPA buffer [500 µL of Tris–HCl (pH = 8), one tablet of protease inhibitor cocktail, 0.003 g EDTA, 0.08 g NaCl, 0.025 g sodium deoxycholate, 0.01 g SDS and 10 µl of Triton NP40 (1%)] used at 4 °C. After that, the cells were centrifuged at 12,000 rpm for 10 min at 4 °C. To measure total protein, the supernatant of cells was determined by the Bradford assay (Bio–Rad protein assay, Bio–Rad Laboratories, USA) using a spectrophotometer (Bibby Scientific Ltd, Beacon Rd, UK). The portions of target protein received from the sodium dodecyl sulfate–polyacrylamide gel electrophoresis (SDS–PAGE) were carried over the polyvinylidene difluoride (PVDF) membrane and were blocked with TBST buffer containing 5% (w/v) skim milk (0.1% v/v Tween®20-tris buffered saline: TBST). The blocked PVDF membranes that contained the target proteins were incubated with specific primary antibodies: Bax (B-9) mouse monoclonal antibody (Santa Cruz) (1:1000), Bcl-2 sc-492 (Santa Cruz) rabbit monoclonal antibody (1:1000), caspase-7 (C7) (Cell Signaling) rabbit polyclonal antibody (1:1000), Caspase-3 Cell Signaling rabbit monoclonal antibody (1:1000), caspase-9 (Cell Signaling) rabbit polyclonal antibody (1:1000), GAPDH (Santa Cruz) mouse monoclonal antibody (1:1000) and P27 (Elabscience) rabbit polyclonal antibody (1:400) that were diluted with blocking buffer) overnight at 4 °C. The membrane was washed with TBST and incubated with secondary antibodies (m-IgGκ BP-HRP (Santa Cruz) for Bax (B-9), Bcl-2 and GAPDH, and mouse anti-rabbit IG-HRP (Santa Cruz) was used for Caspase-3, 7, 9 and P27, which were diluted using blocking buffer (1:1000).) for 1 h at room temperature. The target protein bands were visualized by an enhanced chemiluminescence detection kit (Thermo Fisher Scientific, Breda, the Netherlands) and Amersham® Imager 600 system (GE Healthcare Life Sciences, Eindhoven, Netherlands). Finally, the western blotting results were normalized to the expression of GAPDH as the loading control. All the protein bands were quantified by ImageJ software (v. 1.52n).

[6] = test system: MCF-7 human breast cancer cells; test: MTT cell viability assay, MCF-7; type: cell-based
Experimental: as §1, with “h). The Caco-2 cells were very sensitive to Pt(TSC)Cl in comparison with the two others in all three different durations of treatment. We also used cisplatin, a commercially available platinum-based compound, as a reference.” for “h).”

MCF-7 cells [7] = test: Annexin V-FITC/PI apoptosis flow cytometry, MCF-7; type: cell-based, Human; details: MCF-7, IC50 concentration, 48 h
Experimental: as §3

[8] = test system: A549 human lung cancer cells; test: MTT cell viability assay, A549; type: cell-based
Experimental: as §1, with “h). The Caco-2 cells were very sensitive to Pt(TSC)Cl in comparison with the two others in all three different durations of treatment. We also used cisplatin, a commercially available platinum-based compound, as a reference.” for “h).”

[9] = test system: Hek293 human embryonic kidney cells; test: MTT cell viability assay, Hek293 (nephrotoxicity); type: cell-based; details: Hek293 normal kidney cells, 24 h
Experimental: All cancer cells were cultured in RPMI 1640 medium with 10% FBS in a humidified incubator of 95% air and 5% CO2 at 37 °C. […] Then, […] of MTT solution (5 mg/ml) was added to every well and kept at 37 °C for 4 h in the dark. After removing the medium, 200 µl DMSO was added, and the solution was kept on a shaker for approximately 15 min until the formazan solved completely. The absorbance was evaluated at 490 nm with an ELISA reader. The IC50 was computed by GraphPad Prism 7.0 software. […] Cell viability was assessed with MTT and is presented relative to untreated cells (set to 100%).

MCF-7 cells [10] = test: Cell cycle distribution by PI flow cytometry, MCF-7; type: cell-based, Human; details: MCF-7, IC50 concentration, 48 h
Experimental: as §2

A549 cells [11] = test: Annexin V-FITC/PI apoptosis flow cytometry, A549; type: cell-based, Human; details: A549, IC50 concentration, 48 h
Experimental: as §3

[12] = test system: MCF-7, A549 and Caco-2 cell lines; test: Real time PCR of apoptosis pathway genes; type: cell-based, Human; details: IC50 values, 48 h, GAPDH reference gene
Experimental: Then, the cells were rinsed with cold PBS and harvested. Total RNA was isolated from MCF-Z, A549, and Caco-2 cell lines by the TRIzol method (TRIzol™ Reagent (Invitrogen, Catalog number: 15596026)). Briefly, the cells were centrifuged at 500 g at 4 °C, the plates were processed for cell lysate by 750 μl of RiboEx; then 200 μl chloroform was subjoined to the cell lysate and after incubating for 2 min at room temperature, they were centrifuged at 12,000 g for 20 min (4 °C). Following collection of aqueous phases, one volume of isopropyl alcohol was dispensed for precipitation of total RNA at 12,000 g for 20 min (4 °C). The RNA plate was rinsed with 75% ethanol and dissolved in deep water. Complementary DNA (cDNA) synthesis was performed by Revert Aid Reverse Transcriptase (Cat numb: EP0441, Thermo Scientific, Lithuania) according to the manufacturer’s instructions. For evaluation of the apoptosis pathway genes, real time PCR was carried out based on the following PCR program[28]: initial denaturation at 95 °C for 15 min, 45 cycles of denaturation at 95 °C for 15 sec, and annealing/extension at 60 °C for 50 sec. The real time PCR mixture contained 5 μL 2x SYBR Green Master Mix (RealQ Plus 2x Master Mix Green, Ampliqon, Denmark), 2 μL cDNA, 0.5 μL of 5 pmol/μL primer pair mix (Eurofin, Germany), and 3 μL H2O. […]

IC50 ([1]; Caco-2, 24 h): 17.2 µM
IC50 ([1]; Caco-2, 48 h): 2.3 µM
IC50 ([1]; Caco-2, 72 h): 1.75 µM
IC50 ([6]; MCF-7, 24 h): 200 µM
IC50 ([6]; MCF-7, 48 h): 193 µM
IC50 ([6]; MCF-7, 72 h): 181 µM
IC50 ([8]; A549, 24 h): 147 µM
IC50 ([8]; A549, 48 h): 102 µM
IC50 ([8]; A549, 72 h): 69.3 µM
Structure (SMILES): [Cl][Pt-2]12[S]C(Nc3ccccc3)=N[N+]1=Cc1cccc[n+]12 (stereo not drawn) [Pt(TSC)Cl complex, [Pt(TSC)Cl]]
fold more toxicity than cisplatin ([1]; Caco-2, 48 h): 46 fold
G0/G1, percentage of cells (Caco-2 cells [2]): 30.34%
G2/M, percentage of cells (Caco-2 cells [2]): 5.08%
S, percentage of cells (Caco-2 cells [2]): 14.91%
SubG1, percentage of cells (Caco-2 cells [2]): ~51%
Late apoptosis (PI+/FITC+) cells (Q2) (Caco-2 cells [3]): 52.4%
Necrosis (PI+/FITC-) cells (Q1) (Caco-2 cells [3]): 4.79%
Viable (PI-/FITC-) cells (Q4) (Caco-2 cells [3]): 5.58%
G0/G1, percentage of cells (A549 cells [4]): 47.71%
G2/M, percentage of cells (A549 cells [4]): 15.66%
S, percentage of cells (A549 cells [4]): 13.94%
SubG1, percentage of cells (A549 cells [4]): 22% and 21.78%
Bcl2 protein levels (Caco-2 cells [5]): downregulation
Bax protein level, fold vs control group (Caco-2 cells [5]; normalized to GAPDH): 1.9 fold
caspase 3 protein level, fold vs control group (Caco-2 cells [5]; normalized to GAPDH): 1.97 fold
caspase 7 protein level, fold vs control group (Caco-2 cells [5]; normalized to GAPDH): 1.92 fold
caspase 9 protein level, fold vs control group (Caco-2 cells [5]; normalized to GAPDH): 3.2 fold
p27 protein, fold increase vs control group (Caco-2 cells [5]; normalized to GAPDH): 2.14 fold
Early apoptosis (PI-/FITC+) cells (Q3) (MCF-7 cells [7]): 6.47%
Late apoptosis (PI+/FITC+) cells (Q2) (MCF-7 cells [7]): 23.8%
Necrosis (PI+/FITC-) cells (Q1) (MCF-7 cells [7]): 2.38%
Viable (PI-/FITC-) cells (Q4) (MCF-7 cells [7]): 67.3%
IC50 [9]: 63.9 µM
G0/G1, percentage of cells (MCF-7 cells [10]): 53.17%
G2/M, percentage of cells (MCF-7 cells [10]): 14.70%
S, percentage of cells (MCF-7 cells [10]): 28% and 27.72%
SubG1, percentage of cells (MCF-7 cells [10]): 4.95%
Early apoptosis (PI-/FITC+) cells (Q3) (A549 cells [11]): 3.74%
Late apoptosis (PI+/FITC+) cells (Q2) (A549 cells [11]): 7.12%
Necrosis (PI+/FITC-) cells (Q1) (A549 cells [11]): 3.9%
Viable (PI-/FITC-) cells (Q4) (A549 cells [11]): 85.2%
percentage of apoptotic cells (early + late) (A549 cells [11]): 10.86%
expression of apoptotic pathway genes Bax and Caspases 9, 3 and 7 vs control [12]: upregulated

Structure (SMILES): N.N.[Cl][Pt][Cl] [cisplatin, reference compound]
SubG1, percentage of cells (A549 cells [4]): 0.42%
G0/G1, percentage of cells (A549 cells [4]; listed as Cis): 66.94%
G2/M, percentage of cells (A549 cells [4]; listed as Cis): 16.08%
S, percentage of cells (A549 cells [4]; listed as Cis): 16.13%
IC50 ([6]; MCF-7, 24 h): 162 µM
IC50 ([6]; MCF-7, 48 h): 142 µM
IC50 ([6]; MCF-7, 72 h): 150 µM
Early apoptosis (PI-/FITC+) cells (Q3) (MCF-7 cells [7]): 8.48%
Late apoptosis (PI+/FITC+) cells (Q2) (MCF-7 cells [7]): 10.4%
Necrosis (PI+/FITC-) cells (Q1) (MCF-7 cells [7]): 3.24%
percentage of apoptotic cells (early + late) (MCF-7 cells [7]): 18.88%
IC50 ([8]; A549, 24 h): 96.8 µM
IC50 ([8]; A549, 48 h): 42.9 µM
IC50 ([8]; A549, 72 h): 13.1 µM
IC50 [9]: 4.15 µM
G2/M, percentage of cells (MCF-7 cells [10]): 15.88%
S, percentage of cells (MCF-7 cells [10]): 37.2%
G0/G1, percentage of cells (MCF-7 cells [10]; listed as Cis): 37.21%
S, percentage of cells (MCF-7 cells [10]; listed as Cis): 37.43%
SubG1, percentage of cells (MCF-7 cells [10]; listed as Cis): 6.8%
Early apoptosis (PI-/FITC+) cells (Q3) (A549 cells [11]): 7.50%
Late apoptosis (PI+/FITC+) cells (Q2) (A549 cells [11]): 7.83%
Necrosis (PI+/FITC-) cells (Q1) (A549 cells [11]): 1.73%
percentage of apoptotic cells (early + late) (A549 cells [11]): 15.33%
